Values quoted from earlier work, collected in PubChem BioAssay AID1259409 (Chemical Carcinogenesis Research Information System (CCRIS), 2018).
Values joined by “and” are separate entries in the source; they are usually repeats but may differ in a detail not shown here. Equal values may be shown once.

Tested on: rodent chemically induced tumor inhibition, incidence and multiplicity
Assay: CCRIS tumor inhibitor studies

Structure (SMILES): CC1=C(/C=C/C(C)=C/C=C/C(C)=C\C(=O)Nc2ccc(OC(=O)C(C)(C)C)cc2)C(C)(C)CCC1
- tumour outcome (control, treated, inhibition, significance) (Carcinogen: N-NITROSOBIS(2-OXOPROPYL)AMINE, 60599-38-4, Dose [Inhibitor]: 0.25 MMOL/KG DIET FOR 364 D STARTING 2 WK AFTER LAST CARCINOGEN DOSE (STUDY DURATION: 55 WK), Route [Inhibitor]: ORAL, Species: HAMSTER, Strain/Sex: SYRIAN/FEMALE, Target Tissue: Type of Lesion: LIVER: CARCINOMA, Dose [Carcinogen]: 20 MG/KG INJECTION GIVEN TWICE 1 WK APART, Promoter: NONE USED): 7%, 10%, -43%, not calculated
- tumour outcome (control, treated, inhibition, significance) (Carcinogen: N-NITROSOBIS(2-OXOPROPYL)AMINE, 60599-38-4, Dose [Inhibitor]: 0.25 MMOL/KG DIET FOR 364 D STARTING 2 WK AFTER LAST CARCINOGEN DOSE (STUDY DURATION: 55 WK), Route [Inhibitor]: ORAL, Species: HAMSTER, Strain/Sex: SYRIAN/MALE, Target Tissue: Type of Lesion: LIVER: CARCINOMA, Dose [Carcinogen]: 20 MG/KG INJECTION GIVEN TWICE 1 WK APART, Promoter: NONE USED): 5%, 25%, -400%, not calculated
- tumour outcome (control, treated, inhibition, significance) (Carcinogen: N-NITROSOBIS(2-OXOPROPYL)AMINE, 60599-38-4, Dose [Inhibitor]: 0.25 MMOL/KG DIET FOR 364 D STARTING 2 WK AFTER LAST CARCINOGEN DOSE (STUDY DURATION: 55 WK), Route [Inhibitor]: ORAL, Species: HAMSTER, Strain/Sex: SYRIAN/MALE, Target Tissue: Type of Lesion: PANCREAS: CARCINOMA, Dose [Carcinogen]: 20 MG/KG INJECTION GIVEN TWICE 1 WK APART, Promoter: NONE USED): 34%, 14%, 59%, not calculated and 38%, 28%, 26%, not calculated
- tumour outcome (control, treated, inhibition, significance) (Carcinogen: N-NITROSOBIS(2-OXOPROPYL)AMINE, 60599-38-4, Dose [Inhibitor]: 0.5 MMOL/KG DIET FOR 209 D STARTING 2 WK AFTER LAST CARCINOGEN DOSE FOLLOWED BY 0.25 MMOL/KG DIET FOR 117 D WITH INTERMI, Route [Inhibitor]: ORAL, Species: HAMSTER, Strain/Sex: SYRIAN/FEMALE, Target Tissue: Type of Lesion: LIVER: CARCINOMA, Dose [Carcinogen]: 20 MG/KG INJECTION GIVEN TWICE 1 WK APART, Promoter: NONE USED): 5%, 19%, -280%, not calculated
- tumour outcome (control, treated, inhibition, significance) (Carcinogen: N-NITROSOBIS(2-OXOPROPYL)AMINE, 60599-38-4, Dose [Inhibitor]: 0.5 MMOL/KG DIET FOR 209 D STARTING 2 WK AFTER LAST CARCINOGEN DOSE FOLLOWED BY 0.25 MMOL/KG DIET FOR 117 D WITH INTERMI, Route [Inhibitor]: ORAL, Species: HAMSTER, Strain/Sex: SYRIAN/FEMALE, Target Tissue: Type of Lesion: PANCREAS: CARCINOMA, Dose [Carcinogen]: 20 MG/KG INJECTION GIVEN TWICE 1 WK APART, Promoter: NONE USED): 38%, 27%, 29%, not calculated
- tumour outcome (control, treated, inhibition, significance) (Carcinogen: N-NITROSOBIS(2-OXOPROPYL)AMINE, 60599-38-4, Dose [Inhibitor]: 0.5 MMOL/KG DIET FOR 209 D STARTING 2 WK AFTER LAST CARCINOGEN DOSE FOLLOWED BY 0.25 MMOL/KG DIET FOR 117 D WITH INTERMI, Route [Inhibitor]: ORAL, Species: HAMSTER, Strain/Sex: SYRIAN/MALE, Target Tissue: Type of Lesion: LIVER: HEPATOCELLULAR CARCINOMA, Dose [Carcinogen]: 20 MG/KG INJECTION GIVEN TWICE 1 WK APART, Promoter: NONE USED): 7%, 19%, -171%, not calculated
- tumour outcome (control, treated, inhibition, significance) (Carcinogen: N-NITROSOBIS(2-OXOPROPYL)AMINE, 60599-38-4, Dose [Inhibitor]: 0.5 MMOL/KG DIET FOR 209 D STARTING 2 WK AFTER LAST CARCINOGEN DOSE FOLLOWED BY 0.25 MMOL/KG DIET FOR 117 D WITH INTERMI, Route [Inhibitor]: ORAL, Species: HAMSTER, Strain/Sex: SYRIAN/MALE, Target Tissue: Type of Lesion: PANCREAS: CARCINOMA, Dose [Carcinogen]: 20 MG/KG INJECTION GIVEN TWICE 1 WK APART, Promoter: NONE USED): 34%, 30%, 12%, not significant

Structure (SMILES): CC1=C(O)C(=O)CO1
- tumour outcome (control, treated, inhibition, significance) (Carcinogen: BENZO[A]PYRENE, 50-32-8, Dose [Inhibitor]: 0, 25 PPM IN DIET FOR 17 WK BEGINNING 1 WK POST CARCINOGEN TREATMENT (STUDY DURATION: 21 WK), Route [Inhibitor]: ORAL, Species: MOUSE, Strain/Sex: ICR/FEMALE, Target Tissue: Type of Lesion: FORESTOMACH: TUMOR, Dose [Carcinogen]: 1.5 MG IN 0.2 ML CORN OIL 1/WK FOR 4 WK, Promoter: NONE USED): 90%, 80%, 11%, not significant
- tumour outcome (control, treated, inhibition, significance) (Carcinogen: BENZO[A]PYRENE, 50-32-8, Dose [Inhibitor]: 0, 50 PPM IN DIET FOR 17 WK BEGINNING 1 WK POST CARCINOGEN TREATMENT (STUDY DURATION: 21 WK), Route [Inhibitor]: ORAL, Species: MOUSE, Strain/Sex: ICR/FEMALE, Target Tissue: Type of Lesion: FORESTOMACH: TUMOR, Dose [Carcinogen]: 1.5 MG IN 0.2 ML CORN OIL 1/WK FOR 4 WK, Promoter: NONE USED): 90%, 85%, 6%, not significant
- tumour outcome (control, treated, inhibition, significance) (Carcinogen: BENZO[A]PYRENE, 50-32-8, Dose [Inhibitor]: 0, 75 PPM IN DIET FOR 17 WK BEGINNING 1 WK POST CARCINOGEN TREATMENT (STUDY DURATION: 21 WK), Route [Inhibitor]: ORAL, Species: MOUSE, Strain/Sex: ICR/FEMALE, Target Tissue: Type of Lesion: FORESTOMACH: TUMOR, Dose [Carcinogen]: 1.5 MG IN 0.2 ML CORN OIL 1/WK FOR 4 WK, Promoter: NONE USED): 90%, 80%, 11%, not significant

Structure (SMILES): N[C@@H](Cc1cc(I)c(Oc2cc(I)c(O)c(I)c2)c(I)c1)C(=O)O
- outcome (Carcinogen: N-METHYL-N-NITROSOUREA [684-93-5], Dose [Inhibitor]: 3 UG/ML IN DRINKING WATER, 2 WKS BEFORE CARCINOGEN AND FOR 26 WKS AFTER, Route [Inhibitor]: DRINKING WATER, Species: RAT, Strain/Sex: SPRAGUE-DAWLEY/FEMALE, Target Tissue: Type of Lesion: MAMMARY GLAND: CARCINOMA, Dose [Carcinogen]: 50 MG/KG BW ONCE AT 7 WKS OF AGE (IN SALINE SOLUTION)): 8/11 (73%) vs 9/11 (82%) at 16 wks

Structure (SMILES): CC(C)=CCC/C(C)=C/CC/C(C)=C/CCC1(C)CCc2cc(O)ccc2O1 (stereo not given)
- tumour outcome (control, treated, inhibition, significance) (Carcinogen: 7,12-DIMETHYLBENZ[A]ANTHRACENE, 57-97-6, Dose [Inhibitor]: 0, 3.381 UMOL/G IN DIET FOR DURATION OF STUDY (STUDY DURATION: 18 WK), Route [Inhibitor]: ORAL, Species: RAT, Strain/Sex: SPRAGUE-DAWLEY/FEMALE, Target Tissue: Type of Lesion: MAMMARY GLAND: TUMOR, Dose [Carcinogen]: 50 MG/KG IN SESAME OIL ONCE, Promoter: NONE USED): 88%, 72%, 18%, not significant
- tumour outcome (control, treated, inhibition, significance) (Carcinogen: N-METHYL-N-NITROSOUREA, 684-93-5, Dose [Inhibitor]: 0, 3.381 UMOL/G IN DIET FOR DURATION OF STUDY (STUDY DURATION: 19 WK), Route [Inhibitor]: ORAL, Species: RAT, Strain/Sex: SPRAGUE-DAWLEY/FEMALE, Target Tissue: Type of Lesion: MAMMARY GLAND: TUMOR, Dose [Carcinogen]: 30 MG/KG IN ACIDIFIED SALINE ONCE, Promoter: NONE USED): 60%, 76%, -27%, not significant

Structure (SMILES): CN(C)CCOc1ccc(/C(=C(/CCCl)c2ccccc2)c2ccccc2)cc1
- tumour outcome (control, treated, inhibition, significance) (Carcinogen: N-METHYL-N-NITROSOUREA (684-93-5), Dose [Inhibitor]: 0, 0.2 MG/30 G BW ONCE EVERY 4 WK BEGINNING 1 WK POST CARCINOGEN DOSE (STUDY DURATION: 31 WK), Route [Inhibitor]: SUBCUTANEOUS, Species: MOUSE, Strain/Sex: ICR/FEMALE, Target Tissue: Type of Lesion: UTERUS: ENDOMETRIAL ADENOCARCINOMA, Dose [Carcinogen]: 1 MG/100 G BW IN 0.1 ML SALINE ONCE AT 10 WKS OF AGE, Promoter: 17 BETA-ESTRADIOL (50-28-2)): 8/24 (33%), 1/19 (5%), 85%, p< 0.01
- tumour outcome (control, treated, inhibition, significance) (Carcinogen: N-METHYL-N-NITROSOUREA, 684-93-5, Dose [Inhibitor]: 0, 100 MG/KG IN DIET FOR 28 D THEN REDUCED TO 50 MG/KG IN DIET FOR THE DURATION OF STUDY (STUDY DURATION: 187 D), Route [Inhibitor]: ORAL, Species: RAT, Strain/Sex: SPRAGUE-DAWLEY/FEMALE, Target Tissue: Type of Lesion: MAMMARY GLAND: TUMOR, Dose [Carcinogen]: 50 MG/KG BW ONCE, Promoter: NONE USED): 100%, 46%, 54%, p<0.05
